Results taken from patent US20240083857A1, “2-Methyl-Quinazolines” (Bayer Pharma Aktiengesellschaft, priority 2017, published 2024).

Assays:
[1] = molecular target: human SOS1 (loading of human K-Ras^G12C-GDP with fluorescent GTP-analog) (Homo sapiens, UniProt Q07889); test: Biochemical assay 3: K-Ras^G12C activation assay by hSOS1 (HTRF); conditions: read-out: Assay 3 (KRAS-Activation by SOS no GTP) activity expressed as % inhibition at 20 μM; no GTP; at 20 μM
Source text: Biochemical assay 3: K-Ras^G12C Activation Assay by hSOS1
K-Ras is a small GTPase that can bind GDP and GTP. The guanine nucleotide exchange factor SOS catalyzes the activation of K-Ras by promoting the exchange of GDP to GTP. SOS binds to K-Ras-GDP thereby opening the GDP-binding pocket to facilitate GDP release. Rebinding of excess nucleotide leads to dissociation of the K-Ras-SOS intermediate complex leaving K-Ras loaded with the nucleotide.
This assay quantifies human SOS1-mediated loading of human K-Ras^G12C-GDP with a fluorescent GTP-analog. Detection of successful loading is achieved by measuring homogenous time-resolved fluorescence resonance energy transfer (HTRF) from antiGST-Terbium (FRET donor) bound to GST-K-RasG12C to the loaded fluorescent GTP analog (FRET-acceptor).
The fluorescent GTP-analog EDA-GTP-Dy647P1 (2′/3′-O-(2-Aminoethyl-carbamoyl)-guanosine-5′-triphosphate labelled with Dy647P1 (Dyomics GmbH, Germany)) was synthesized by Jena Biosciences GmbH (Germany) and supplied as a 1 mM aqueous solution.
(§1) The assay buffer contained 10 mM HEPES pH 7.4 (Applichem), 150 mM NaCl (Sigma), 5 mM MgCl2 (Sigma), 1 mM DTT (Thermofisher), 0.05% BSA Fraction V, pH 7.0, (ICN Biomedicals), 0.0025% (v/v) Igepal (Sigma).
Concentrations of protein batches used were optimized to be within the linear range of the HTRF signal. A Ras working solution was prepared in assay buffer containing typically 100 nM GST-hK-RasG12C and 2 nM antiGST-Tb (Cisbio, France). A hSOS1 working solution was prepared in assay buffer containing typically 20 nM hSOS1 and 200 nM EDA-GTP-Dy647P1. An inhibitor control solution was prepared in assay buffer containing 200 nM EDA-GTP-Dy647P1 without hSOS1.
(§2) Fifty nl of a 100-fold concentrated solution of the test compound in DMSO were transferred into a black microtiter test plate (384 or 1536, Greiner Bio-One, Germany). For this, either a Hummingbird liquid handler (Digilab, MA, USA) or an Echo acoustic system (Labcyte, CA, USA) was used.
(§3) All steps of the assay were performed at 20° C. A volume of 2.5 μl of the Ras working solution was added to all wells of the test plate using a Multidrop dispenser (Thermo Labsystems). After 10 min preincubation, 2.5 μl of the hSOS1 working solution were added to all wells except for those wells at the side of the test plate that were subsequently filled with 2.5 μl of the inhibitor control solution. After 30 min incubation the fluorescence was measured with a Pherastar (BMG, Germany) using the HTRF module (excitation 337 nm, emission 1: 620 nm, emission 2: 665 nm).
(§4) IC50 values were calculated by 4-Parameter fitting using a commercial software package (Genedata Screener, Switzerland).

[2] = molecular target: human SOS1 (nucleotide exchange of K-Ras^G12C) (Homo sapiens, UniProt Q07889); test: Biochemical assay 2: K-Ras^G12C activation assay by hSOS1 at high GTP concentration (HTRF); conditions: read-out: Assay 2 (KRAS-Activation by SOS high GTP) activity expressed as % inhibition at 20 μM; high GTP; at 20 μM
Source text: Biochemical Assay 2: K-Ras^G12C Activation Assay by hSOS1 at High GTP Concentration
This assay quantifies human SOS1-mediated nucleotide exchange of K-Ras^G12C preloaded with a fluorescent […] and in presence of an excess of free GTP. Loaded hK-Ras^G12C generates a high HTRF-signal by energy transfer from antiGST-Terbium (FRET donor) bound to K-Ras to the loaded fluorescent GDP analog (FRET-acceptor). SOS1 activity exchanges the fluorescent GDP for non-fluorescent GTP and therefore leads to a reduction of the HTRF signal.
The fluorescent GDP-analog EDA-GDP-Dy647P1 (2′/3′-O-(2-Aminoethyl-carbamoyl)-guanosine-5′-diphosphate labelled with Dy647P1 (Dyomics GmbH, Germany)) was synthesized by Jena Biosciences GmbH (Germany) and supplied as a 1 mM aqueous solution.
Concentrations of protein batches used were optimized to be within the linear range of the HTRF signal.
Preparation of GST-tagged hK-Ras^Gl2C loaded with fluorescent nucleotide was performed as follows: incubation of 11.5 μM hK-Ras^Gl2C with 5-fold excess GDP-Dy647 nucleotide (54 μM) in 500 μl NLS-buffer (RAS activation Kit Jena Bioscience, Kat. #PR-950) for 10 min at 37° C. Addition of 20 μl 1 M MgCl2 (Sigma) to final 40 mM and store on ice. Purification into buffer (10 mM HEPES pH 7.4 (Applichem), 150 mM NaCl (Sigma), 5 mM MgCl2 (Sigma)) by use of a PD-Minitrap desalting column (GE Healthcare). Concentration of 1 ml purified hK-Ras-GDP-Dy647 is approx. 4-5 μM.
as §1
A Ras working solution was prepared in assay buffer containing typically 80 nM loaded GST-hK-RasG12C-EDA-GDP-Dy647P1 and 2 nM antiGST-Tb (Cisbio, France). A hSOS1 working solution was prepared in assay buffer containing typically 8 nM His-hSOS1 and 100 μM GTP (Jena Bioscience, Germany). An inhibitor control solution was prepared in assay buffer containing the same concentration of […].
as §2
as §3, with “2” for “10”, “20” for “30”
as §4

Structure (SMILES)	inhibition at 20 µM [1]	inhibition at 20 µM [2]
COc1cc2nc(C)nc(N[C@@H](C)c3ccc(-c4cncnc4)s3)c2cc1OC (stereo in doubt) [Example 42, 6,7-dimethoxy-2-methyl-N-{1-[5-(pyrimidin-5-yl)thiophen-2-yl]ethyl}quinazolin-4-amine]	48%	
COc1cc2nc(C)nc(N[C@@H](C)c3ccc(-c4ccc5c(ccn5C)c4)s3)c2cc1OC (stereo in doubt) [Example 49, 6,7-dimethoxy-2-methyl-N-{1-[5-{1-methyl-1H-indol-5-yl)thiophen-2-yl]ethyl}quinazolin-4-amine]	36%	35%
COCc1ccccc1-c1ccc([C@H](C)Nc2nc(C)nc3cc(OC)c(OC)cc23)s1 (stereo in doubt) [Example 50, 6,7-dimethoxy-N-[1-{5-[2-(methoxymethyl)phenyl]thiophen-2-yl}ethyl]-2-methylquinazolin-4-amine]	23%	
COc1cc2nc(C)nc(N[C@@H](C)c3ccc(-c4cccc(C(=O)N(C)C)c4)s3)c2cc1OC (stereo in doubt) [Example 51, 3-(5-{1-[(6,7-dimethoxy-2-methylquinazolin-4-yl)amino]ethyl}thiophen-2-yl)-N,N-dimethylbenzamide]	52%	
COc1cc2nc(C)nc(N[C@@H](C)c3ccc(-c4ccc(CO)s4)s3)c2cc1OC (stereo in doubt) [Example 52, (5′-{1-[(6,7-dimethoxy-2-methylquinazolin-4-yl)amino]ethyl}-2,2′-bithiophen-5-yl)methanol]	43%	
COc1cc2nc(C)nc(N[C@@H](C)c3ccc(-c4ccc5c(c4)OCCO5)s3)c2cc1OC (stereo in doubt) [Example 98, N-{1-[5-(2,3-dihydro-1,4-benzodioxin-6-yl)thiophen-2-yl]ethyl}-6,7-dimethoxy-2-methylquinazolin-4-amine]	24%	43%
COc1cc2nc(C)nc(N[C@@H](C)c3ccc(-c4ccc(-c5nnc(C)o5)cc4)s3)c2cc1OC (stereo in doubt) [Example 128, 6,7-dimethoxy-2-methyl-N-[1-{5-[4-(5-methyl-1,3,4-oxadiazol-2-yl)phenyl]thiophen-2-yl}ethyl]quinazolin-4-amine]	16%	
COc1cc2nc(C)nc(N[C@@H](C)c3ccc(-c4ccc(CNC(C)=O)cc4)s3)c2cc1OC (stereo in doubt) [Example 138, N-[4-(5-{1-[(6,7-dimethoxy-2-methylquinazolin-4-yl)amino]ethyl}thiophen-2-yl)benzyl)acetamide]	40%	
COc1cc2nc(C)nc(N[C@@H](C)c3ccc(-c4cccc(CNS(C)(=O)=O)c4)s3)c2cc1OC (stereo in doubt) [Example 139, N-[3-(5-{1-[(6,7-dimethoxy-2-methylquinazolin-4-yl)amino]ethyl}thiophen-2-yl)benzyl]methanesulfonamide]	41%	
COc1cc2nc(C)nc(N[C@@H](C)c3ccc(-c4ccc(CNS(C)(=O)=O)cc4)s3)c2cc1OC (stereo in doubt) [Example 140, N-[4-(5-{1-[(6,7-dimethoxy-2-methylquinazolin-4-yl)amino]ethyl}thiophen-2-yl)benzyl]methanesulfonamide]	33%	
CCCNC(=O)c1ccc(-c2ccc([C@H](C)Nc3nc(C)nc4cc(OC)c(OC)cc34)s2)cc1 (stereo in doubt) [Example 141, 4-(5-{1-[(6,7-dimethoxy-2-methylquinazolin-4-yl)amino]ethyl}thiophen-2-yl)-N-propylbenzamide]		25%
COc1cc2nc(C)nc(N[C@@H](C)c3ccc(-c4ccc(S(C)(=O)=O)cc4)s3)c2cc1OC (stereo in doubt) [Example 149, 6,7-dimethoxy-2-methyl-N-[1-{5-[4-(methylsulfonyl)phenyl]thiophen-2-yl}ethyl]quinazolin-4-amine]	17%	
COc1cc2nc(C)nc(N[C@@H](C)c3ccc(-c4cccc(OC(F)(F)F)c4)s3)c2cc1OC (stereo in doubt) [Example 151, 6,7-dimethoxy-2-methyl-N-[1-{5-[3-(trifluoromethoxy)phenyl]thiophen-2-yl}ethyl]quinazolin-4-amine]		51%
COc1cc2nc(C)nc(N[C@@H](C)c3ccc(-c4ccc5c(c4)OCO5)s3)c2cc1OC (stereo in doubt) [Example 163, N-{1-[5-(1,3-benzodioxol-5-yl)thiophen-2-yl]ethyl}-6,7-dimethoxy-2-methylquinazolin-4-amine]	35%	42%
COc1cc2nc(C)nc(N[C@@H](C)c3ccc(-c4cccc(NS(C)(=O)=O)c4)s3)c2cc1OC (stereo in doubt) [Example 165, N-[3-(5-{1-[(6,7-dimethoxy-2-methylquinazolin-4-yl)amino]ethyl}thiophen-2-yl)phenyl]methanesulfonamide]	32%	
COc1cccc(-c2ccc([C@H](C)Nc3nc(C)nc4cc(OC)c(OC)cc34)s2)c1 (stereo in doubt) [Example 167, 6,7-dimethoxy-N-{1-[5-(3-methoxyphenyl)thiophen-2-yl]ethyl}-2-methylquinazolin-4-amine]	37%	40%
COc1cc2nc(C)nc(N[C@@H](C)c3ccc(-c4cccc(C(F)(F)F)c4)s3)c2cc1OC (stereo in doubt) [Example 168, 6,7-dimethoxy-2-methyl-N-[1-{5-[3-(trifluoromethyl)phenyl]thiophen-2-yl}ethyl]quinazolin-4-amine]	32%	38%
COc1cc2nc(C)nc(N[C@@H](C)c3ccc(-c4cccc(S(C)(=O)=O)c4)s3)c2cc1OC (stereo in doubt) [Example 173, 6,7-dimethoxy-2-methyl-N-[1-{5-[3-(methylsulfonyl)phenyl]thiophen-2-yl}ethyl]quinazolin-4-amine]	48%	
COc1cc2nc(C)nc(N[C@@H](C)c3ccc(-c4ccc(C(=O)N(C)C)cc4)s3)c2cc1OC (stereo in doubt) [Example 176, 4-(5-{1-[(6,7-dimethoxy-2-methylquinazolin-4-yl)amino]ethyl}thiophen-2-yl)-N,N-dimethylbenzamide]	42%	
